Assay results: paper PMC5374215, “Fludarabine Inhibits KV1.3 Currents in Human B Lymphocytes” (Frontiers in Pharmacology, 2017)

Molecular target: T1, KV1.3 (Homo sapiens, UniProt P22001)
T1 construct: gene KCNA3; human KV1.3 channel (KV1.3-pEYFP) transiently transfected in HEK-293 cells
Experiment: whole-cell patch clamp of KV1.3-transfected HEK-293 cells
Assay type: cell-based
Conditions: HEK293

T1 sequence (P22001 whole entry): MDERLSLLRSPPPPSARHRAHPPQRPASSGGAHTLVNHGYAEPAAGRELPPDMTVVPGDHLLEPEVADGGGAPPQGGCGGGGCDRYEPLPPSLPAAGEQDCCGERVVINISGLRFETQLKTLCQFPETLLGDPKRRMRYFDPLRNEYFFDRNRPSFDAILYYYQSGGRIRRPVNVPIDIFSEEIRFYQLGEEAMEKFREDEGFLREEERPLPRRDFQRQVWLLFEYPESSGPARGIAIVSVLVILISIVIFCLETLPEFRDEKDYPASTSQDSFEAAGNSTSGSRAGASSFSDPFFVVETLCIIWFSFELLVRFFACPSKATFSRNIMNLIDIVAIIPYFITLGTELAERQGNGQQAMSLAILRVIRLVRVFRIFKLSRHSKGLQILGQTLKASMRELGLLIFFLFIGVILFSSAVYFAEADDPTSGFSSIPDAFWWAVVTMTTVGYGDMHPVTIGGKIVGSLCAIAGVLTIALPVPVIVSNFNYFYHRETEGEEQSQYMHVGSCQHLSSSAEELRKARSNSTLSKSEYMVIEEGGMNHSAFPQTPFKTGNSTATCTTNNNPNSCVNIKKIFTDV

Work on O=c1ccc2c(OCCCCOc3ccccc3)c3ccoc3cc2o1 [PAP-1, 5-(4-phenoxybutoxy)psoralen] yielded an inhibition at 0.2 µM of 89.5 ± 2.8%.
